Test results published in patent US10647677B2, “Analogues of hydroxychloroquine (HCQ) without retinal toxicity” (Inoviem Scientific, priority 2015, dated 2020).
Where two headings read alike, the source gives them in different places.

Tests used:
[1] = biological target: T1, myeloperoxidase (MPO) (Homo sapiens, UniProt P05164); experiment: Surface plasmon resonance (Biacore 3000) affinity on MPO; format: binding; conditions: SPR at 25° C.
T1 construct: purchased
T1 sequence (P05164 49-745): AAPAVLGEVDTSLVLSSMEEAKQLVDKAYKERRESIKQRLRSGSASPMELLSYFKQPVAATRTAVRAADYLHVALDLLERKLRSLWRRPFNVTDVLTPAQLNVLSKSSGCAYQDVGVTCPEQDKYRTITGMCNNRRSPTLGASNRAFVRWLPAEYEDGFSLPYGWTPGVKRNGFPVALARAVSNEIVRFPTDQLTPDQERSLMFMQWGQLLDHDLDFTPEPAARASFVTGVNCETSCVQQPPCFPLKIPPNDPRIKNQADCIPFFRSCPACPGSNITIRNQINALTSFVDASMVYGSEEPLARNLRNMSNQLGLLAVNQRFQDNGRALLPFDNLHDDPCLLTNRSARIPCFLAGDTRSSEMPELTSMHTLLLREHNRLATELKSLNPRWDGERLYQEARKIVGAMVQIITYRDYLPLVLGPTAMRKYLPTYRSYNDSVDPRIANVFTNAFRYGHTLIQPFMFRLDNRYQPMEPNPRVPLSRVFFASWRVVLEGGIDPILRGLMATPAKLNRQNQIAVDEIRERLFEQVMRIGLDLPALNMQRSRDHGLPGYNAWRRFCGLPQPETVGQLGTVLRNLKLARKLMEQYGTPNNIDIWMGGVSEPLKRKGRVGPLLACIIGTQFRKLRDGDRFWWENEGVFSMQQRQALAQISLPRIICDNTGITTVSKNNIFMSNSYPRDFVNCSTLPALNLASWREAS
Protocol: (§1) Using the surface plasmon resonance technology (Biacore 3000), the interaction constants between HCQ analogues (HCQa) and myeloperoxidase (MPO) targets and αB-crystalline (αB-C) were measured at 25° C. according to 12 different series of experiments. First, HCQ analogues at five different concentrations (10^−6 to 10^−8 M) were injected at a rate of 10^−6 L/min for 250 s on the MPO and αB-C targets as well as on the ERK1 and ERK2 controls, followed by a dissociation phase of 150 s.
(§2) The kinetic parameters were measured using the BIAevaluation 4.1 software. The set of resonance unit values obtained with the controls were subtracted from those obtained with MPO and αB-C to compensate for non-specific bonds.
(§3) The differences in Kd values for the myeloperoxidase (MPO) and αB-crystalline (αB-C) enzymes in Tables 1 and 2 are due to the variability of commercial batches. Nevertheless, the difference between the Kd of the compounds HCQ and CB137 remains identical according to these two tests.
(§4) Analysis of the compounds in the form of sulphate salts according to the method described above: […]

[2] = biological target: T2, αB-crystalline (αB-C) (Homo sapiens, UniProt P02511); experiment: Surface plasmon resonance (Biacore 3000) affinity on αB-crystalline; format: binding; conditions: SPR at 25° C.; for Kd: read-out: Kd (M) on crystallin
T2 construct: purchased
T2 sequence (P02511 1-175): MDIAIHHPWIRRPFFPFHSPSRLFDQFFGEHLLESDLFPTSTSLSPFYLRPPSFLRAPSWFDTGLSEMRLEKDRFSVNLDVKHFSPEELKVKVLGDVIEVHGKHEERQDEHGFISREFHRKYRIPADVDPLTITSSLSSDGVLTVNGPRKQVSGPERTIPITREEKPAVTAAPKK
Protocol: as §1, §2, §3, §4

[3] = Table 2, compounds in the form of sulphate salts

Structure (SMILES) | Kd ([1]; Table 1) [nM] | Kd ([2]; Table 1) [M] | Kd [1, 3] [nM] | Kd [2, 3] [M] | Kd (M) on crystallin ([2]; Table 1)
CCN(CCO)CCCC(C)Nc1ccnc2cc(Cl)ccc12 (single isomer, unassigned) [CB133] | 711 | 2.19e-09 |  |  | 
CCN(CCO)CCCC(C)Nc1c(C#N)cnc2cc(Cl)ccc12 (stereo not drawn) [CB029] | 71 | 3.5e-08 |  |  | 
CCN(CCO)CCCC(C)Nc1c(Cl)cnc2cc(Cl)ccc12 (stereo not drawn) [CB072] | 1.1 | 1.6e-07 |  |  | 
CCN(CCO)CCCC(C)Nc1c(C(=O)C2CC2)cnc2cc(Cl)ccc12 (stereo not drawn) [CB103] | 36 | 6.6e-07 |  |  | 
CCN(CCO)CCCC(C)Nc1c(C(F)(F)F)cnc2cc(Cl)ccc12 (stereo not drawn) [CB108] | 14 | 8.1e-07 |  |  | 
CCN(CCO)CCCC(C)Nc1c(C(=O)C(F)(F)F)cnc2cc(Cl)ccc12 (stereo not drawn) [CB114] | 60 | 2.2e-05 |  |  | 
CCN(CCO)CCCC(C)Nc1ccnc2cc(Cl)cc(Cl)c12 (stereo not drawn) [CB300] |  |  | 4000 | 0.0002 | 
CCN(CCO)CCCC(C)Nc1ccnc2c(Cl)c(Cl)ccc12 (stereo not drawn) [CB317] |  |  | 9000 |  | 
CCN(CCO)CCC[C@@H](C)Nc1ccnc2cc(Cl)cc(Cl)c12 [CB321 R-enantiomer] |  |  | 7000 | 1e-05 | 
CCN(CCO)CCC[C@@H](C)Nc1c(Cl)cnc2cc(Cl)ccc12 [CB323 R-enantioer] |  |  | 90 | 0.0002 | 
CCN(CCO)CCCC(C)Nc1c(C2CC2)cnc2cc(Cl)ccc12 (stereo not drawn) [CB341] |  |  | 5000 | 2e-05 | 
CCOC(=O)c1cnc2cc(Cl)ccc2c1NC(C)CCCN(CC)CCO (stereo not drawn) [NT36F9] | 7.5 |  |  |  | Kd not measurable because below the detection threshold
C#CCOCc1cnc2cc(Cl)ccc2c1NC(C)CCCN(CC)CCO (stereo not drawn) [NT69] |  |  |  |  | Kd not measurable because below the detection threshold
